This note sets out measurements from patent publication US7115593B2 (priority 2000, dated 2006).

The assay deals with Phytophthora infestans. In words: whole plant or invertebrate. The following applies: tomato, protective, evaluation 3 days after inoculation; for pest or weed control at 10 g/ha / pest or weed control at 20 g/ha / pest or weed control at 0.1 g/ha / pest or weed control at 1 g/ha: Phytophthora infestans, in Solanum lycopersicum, 72 h; for pest or weed control at 10 g/ha: read-out: Efficacy in %, single active compound, application rate 10 g/ha; for pest or weed control at 20 g/ha: read-out: Efficacy in %, single active compound, application rate 20 g/ha; for pest or weed control at 0.1 g/ha: read-out: Efficacy in %, single active compound, application rate 0.1 g/ha; for pest or weed control at 1 g/ha: read-out: Efficacy in %, single active compound, application rate 1 g/ha; for Efficacy in %: single active compound. The assay is classed as in vivo.

With `CC(C)(C)C(O)C(Oc1ccc(-c2ccccc2)cc1)n1cncn1` (stereo not shown) [bitertanol (IIc), 1-(4-phenyl-phenoxy)-3,3-dimethyl-1-(1,2,4-triazol-1-yl)-butan-2-ol], the pest or weed control at 10 g/ha amounted to 4%.
As to `CCC1(C(=O)NC(C)c2ccc(Cl)cc2)C(C)C1(Cl)Cl` (stereo not shown) [carpropamid (V), N-[1-(4-chloro-phenyl)-ethyl]-2,2-dichloro-1-ethyl-3-methyl-cyclopropane-carboxamide], the pest or weed control at 10 g/ha was found to be 0%.
Consider `N#Cc1c(Cl)c(Cl)c(Cl)c(C#N)c1Cl` [chlorothalonil (XXIX), chlorothalonil], for which the pest or weed control at 20 g/ha stood at 12%.
As for `CC(C)OC(=O)NC(C(=O)NC(C)c1nc2ccc(F)cc2s1)C(C)C` (stereo not shown) [compound of the formula (I), isopropyl 1-({[1-(6-fluoro-1,3-benzothiazol-2-yl)ethyl]-amino}carbonyl)-2-methylpropylcarbamate], the pest or weed control at 0.1 g/ha was found to be 47% and the pest or weed control at 1 g/ha was found to be 47%.
For `CO/C=C(/C(=O)OC)c1ccccc1Oc1cc(Oc2ccccc2C#N)ncn1` [compound of the formula (XII) (11), azoxystrobin], the pest or weed control at 1 g/ha amounted to 55%.
Still for that read-out and setting: as for `CO/N=C(/C(=O)OC)c1ccccc1CO/N=C(\C)c1cccc(C(F)(F)F)c1` [compound of the formula (XIII) (12), trifloxystrobin], the figure is 0%; as for `CO/N=C(/C1=NOCCO1)c1ccccc1Oc1ncnc(Oc2ccccc2Cl)c1F` [compound of the formula (XIV) (13)], 8%.
As to `OC(Cc1ccccc1Cl)(Cn1nc[nH]c1=S)C1(Cl)CC1` (stereo not shown) [compound of the formula (XXI) (20)], the pest or weed control at 10 g/ha stood at 2%.
As for `Cc1noc(C)c1S(=O)(=O)n1c(Cl)nc2cc3c(cc21)OC(F)(F)O3` [compound of the formula (XXVII), 1-(3,5-dimethyl-isoxazol-4-sulphonyl)-2-chloro-6,6-difluoro-[1,3]-dioxolo-[4,5f]-benzimidazole], the pest or weed control at 0.1 g/ha is 30%.
`[Cl-].[Cu+2].[Cu+2].[OH-].[OH-].[OH-]` [compound of the formula (XXXXVIa) (40), copper oxychloride] came in with an Efficacy in % (application rate 50 g/ha) of 0%.
Consider `CN(C)S(=O)(=O)N(SC(F)(Cl)Cl)c1ccccc1` [dichlofluanid (IVa), dichlofluanid], for which the Efficacy in % (application rate 20 g/ha) turned out to be 5%.
For the molecule `CC1(C(=O)Nc2ccc(O)c(Cl)c2Cl)CCCCC1` [fenhexamid (VIII), fenhexamid], the pest or weed control at 10 g/ha was determined as 13%.
On the same count and under the same terms, as for `O=[N+]([O-])c1cc(C(F)(F)F)c(Cl)c([N+](=O)[O-])c1Nc1ncc(C(F)(F)F)cc1Cl` [fluazinam (XXXI), fluazinam], the figure is 56%.
As for `O=C1c2ccccc2C(=O)N1SC(Cl)(Cl)Cl` [folpet (XIX), folpet], the pest or weed control at 20 g/ha stood at 0%.
For the molecule `O=[N+]([O-])/N=C1\NCCN1Cc1ccc(Cl)nc1` [imidacloprid (XXII), 1-[(6-chloro-3-pyridinyl)-methyl]-N-nitro-2-imidazolidinimine], the pest or weed control at 10 g/ha was determined as 0%.
On to `CCCN(CC)CC1COC2(CCC(C(C)(C)C)CC2)O1` (stereo not shown) [spiroxamine (XI), 8-t-butyl-2-(N-ethyl-N-n-propyl-amino)-methyl-1,4-dioxaspiro[5,4]-decane], for which the Efficacy in % (application rate 10 g/ha) worked out at 0%.
For `CC(C)(C)C(O)(CCc1ccc(Cl)cc1)Cn1cncn1` (stereo not shown) [tebuconazole (III), tebuconazole], the pest or weed control at 10 g/ha amounted to 5%.
`Cc1ccc(N(SC(F)(Cl)Cl)S(=O)(=O)N(C)C)cc1` [tolylfluanid (IVb), tolylfluanid]: where the note is “application rate 20 g/ha”, the Efficacy in % came out at 21%.
Take `CC(C)(C)C(O)C(Oc1ccc(Cl)cc1)n1cncn1` (stereo not shown) [triadimenol (IIb), 1-(4-chloro-phenoxy)-3,3-dimethyl-1-(1,2,4-triazol-1-yl)-butan-2-ol]: the pest or weed control at 10 g/ha was 0%.
mancozeb [mancozeb (VIIc)] had an Efficacy in % (application rate 20 g/ha) of 28%.
Consider “zinc propylene-1,2-bis-(dithiocarbamidate) [propineb (VI)]”, for which the Efficacy in % (application rate 20 g/ha) was 19%.
